{"source": "patent US8956832B2", "about": "“Cells expressing anti-GD2 antibodies and methods related thereto” (Morphotek, Inc., priority 2008, dated 2015)", "tested_on": "AB527-expressing cells", "experiment": "Effect of valeric acid on cell growth and antibody production", "format": "cell-based, Chinese Hamster", "conditions": "for Maximum Viable Cell Density: 14 days; for Doubling Time (DT): in h (unit assumed)", "description": "To determine the effect of valeric acid on cell growth, AB527-expressing cells were cultured in GIBCO-CD-CHO complete medium supplemented with valeric acid to a concentration of 0 mM, 1 mM, 2 mM, 4 mM, or 8 mM. Cells were cultured for 14 days and viable cell density, percent viability, and integral viable cell density were determined using a CEDEX automated cell counter on days 0, 3, 5, 7, 10, 13, and 14. Antibody production was determined for each group of cultured cells on day 14 by protein A HPLC."}
{"smiles": "CCCCC(=O)O", "note": "[Valeric Acid, valeric acid]", "values": [{"measurement": "Integral of Viable Cell Density (IVC)", "setting": "1 mM valeric acid", "result": "6.74E+7", "unit": "cells · day/mL"}, {"measurement": "Specific Antibody Production Rate (Qp)", "setting": "1 mM valeric acid", "result": 58.44, "unit": "mg/10^9 cells/day"}, {"measurement": "Maximum Viable Cell Density", "setting": "1 mM valeric acid", "result": "94.60 10^5/mL"}, {"measurement": "Final Antibody Titer", "setting": "1 mM valeric acid, day 14", "result": 4137.1, "unit": "mg/L"}, {"measurement": "antibody titer higher than that of the control culture", "setting": "1 mM valeric acid, day 14", "result": 36, "unit": "%"}, {"measurement": "Final Antibody Titer", "setting": "1 mM valeric acid, day 14, listed as valeric acid", "result": 4137, "unit": "mg/L"}, {"measurement": "Doubling Time (DT)", "setting": "1 mM valeric acid", "result": 24.17}, {"measurement": "Integral of Viable Cell Density (IVC)", "setting": "2 mM valeric acid", "result": "6.55E+7", "unit": "cells · day/mL"}, {"measurement": "Specific Antibody Production Rate (Qp)", "setting": "2 mM valeric acid", "result": 54.45, "unit": "mg/10^9 cells/day"}, {"measurement": "Maximum Viable Cell Density", "setting": "2 mM valeric acid", "result": "81.00 10^5/mL"}, {"measurement": "Final Antibody Titer", "setting": "2 mM valeric acid, day 14", "result": 3706.7, "unit": "mg/L"}, {"measurement": "Doubling Time (DT)", "setting": "2 mM valeric acid", "result": 24.17}, {"measurement": "Integral of Viable Cell Density (IVC)", "setting": "4 mM valeric acid", "result": "6.72E+7", "unit": "cells · day/mL"}, {"measurement": "Specific Antibody Production Rate (Qp)", "setting": "4 mM valeric acid", "result": 52.24, "unit": "mg/10^9 cells/day"}, {"measurement": "Maximum Viable Cell Density", "setting": "4 mM valeric acid", "result": "77.40 10^5/mL"}, {"measurement": "Final Antibody Titer", "setting": "4 mM valeric acid, day 14", "result": 3600.1, "unit": "mg/L"}, {"measurement": "Doubling Time (DT)", "setting": "4 mM valeric acid", "result": 24.17}, {"measurement": "Integral of Viable Cell Density (IVC)", "setting": "8 mM valeric acid", "result": "4.76E+7", "unit": "cells · day/mL"}, {"measurement": "Specific Antibody Production Rate (Qp)", "setting": "8 mM valeric acid", "result": 56.16, "unit": "mg/10^9 cells/day"}, {"measurement": "Maximum Viable Cell Density", "setting": "8 mM valeric acid", "result": "54.40 10^5/mL"}, {"measurement": "maximum cell density", "setting": "8 mM valeric acid, at day 7", "result": "5.4×10^6 cells/mL"}, {"measurement": "viability", "setting": "8 mM valeric acid, at day 7", "result": 67.4, "unit": "%"}, {"measurement": "Final Antibody Titer", "setting": "8 mM valeric acid, day 14", "result": 2760.4, "unit": "mg/L"}, {"measurement": "Doubling Time (DT)", "setting": "8 mM valeric acid", "result": 24.17}]}
